Measured values taken from publication PMC9826068 (Chemistry (Weinheim an Der Bergstrasse, Germany), 2022).
Converted amounts (≈) assume the structure as drawn.

What was measured:
[1] = Aqueous solubility; format: physicochemical; settings: aqueous medium at pH 7.4, pH 7.4, aqueous buffer
[2] = Distribution coefficient 1‐octanol / aqueous phosphate buffer; format: physicochemical; settings: pH 7.4

| solubility [1] | logD [2] | SMILES |
| --- | --- | --- |
| 3 µM (≈ 1.27 µg/mL) | – | O=C(NCc1cccc(CNC(=O)c2cc3ccccc3o2)c1)c1cc2ccccc2o1 [compound 28] |
| 28 µM (≈ 11.1 µg/mL) | 4.6 | c1cc(CNCc2cc3ccccc3o2)cc(CNCc2cc3ccccc3o2)c1 [compound 29] |
